# ChEMBL document CHEMBL1142764, “Anti-HIV properties of cationic fullerene derivatives” (Bioorg Med Chem Lett, 2005)
# Columns and labels:
# CCRF-CEM = assay: Cytostatic activity against CEM cell culture; format: functional; details: Homo sapiens
# [1] = tested on: Human immunodeficiency virus 1; assay: Effective concentration against HIV-1; format: functional, organism-based
# [2] = tested on: Human immunodeficiency virus 2; assay: Effective concentration against HIV-2; format: functional, organism-based
EC50 [1] [µM],EC50 [2] [µM],Structure (SMILES),CC50 (CCRF-CEM) [µM]
1.08,2.5,CC12C[N+](C)(C)CC34C5c6cc7c8c9c6-c6c5c5c%10c%11c6C6c%12c%13c%14c%15c%16c%17c%18c(c%19c%20c%21c%22c%23c%24c(c%10c%10c(c%12%11)c%14c%11c%10c%24c%22c%10c%20c%18c%15c%10%11)C5C35C=%23CC%215C%1914)C(C%17=C8C1(C[N+](C)(C)CC%16%131)C96)C72 (configuration not stated),12.5
> 25,> 25,C[N+]1(C)CC23C4=C5c6c7c8c9c%10c%11c%12c%13c%14c%15c%16c%17c%18c%19c%20c%21c%22c%23c%24c(c6C6%25C[N+](C)(C)CC%236C%21C6C%21=C%20C%18C%18C%20=C%21C(C4c4c%20c(c-%13c(c42)C%12C9C73C1)C%18C%14%17)C6C5%25)c8c1c%10c(c%11%15)c2c%16c%19c%22c2c%241 (configuration not stated),> 125
0.21,0.2,CC1C2c3cc4/c5c6c7c8c9c%10c6c4c4c3C3=C6c%11c%12c%13c%14c%15c(c9c9c%16c8c(c8/c(c%17c%18c%19c(c(c%11c%11c%19c%19c%17c8c%16c(c%149)c%19c%13%11)C62)C1C%181C[N+](C)(C)C1)=C\C/C=5)C7)C%10C4C31C[N+](C)(C)CC%12%151 (configuration not stated),2.93
0.35,0.7,CC1C2c3cc4c5c6c3C3=C7c8c9c%10c%11c%12c%13c%14c%15c(c-5c5c%16c%15c%15c%17c%18c%19c%20c%21c%22c(c(c8c8c%22c%22c%20c%18c%18c%15c%14c%11c%18c%22c%108)C72)C1C%211CC=%19C1(C%16%17)C1C[N+](C)(C)CC451)C%13C6C31C[N+](C)(C)CC9%121 (configuration not stated),9.04
